Laboratory results from ChEMBL document CHEMBL1131562, “Synthesis of L-enantiomers of 4'-thioarabinofuranosyl pyrimidine nucleosides” (1998).
Values after ≈ are worked out from the molar mass of the structure shown. Each block holds one molecule with its values, some of them ahead of it. Active and inactive are the calls of the source. The rule behind the calls is not given here.

How the values were obtained:
[1] = organism: Homo sapiens; experiment: Cytotoxicity against human T-cell leukemia, CCRF-HSB-2, at concentration up to 100 ug/mL; NA means not active; format: functional
[2] = test system: Human alphaherpesvirus 1; experiment: Antiviral activity against herpes simplex virus type-1 at concentration up to 100 ug/mL; NA means not active; format: functional, organism-based
[3] = test system: Human alphaherpesvirus 2; experiment: Antiviral activity against herpes simplex virus type-2 at concentration up to 100 ug/mL; NA means not active; format: functional, organism-based
[4] = test system: Human alphaherpesvirus 1; experiment: Effective dose required for antiviral activity against herpes simplex virus type-1; format: functional; details: read-out: ED50 (the source's name)
[5] = test system: Human alphaherpesvirus 2; experiment: Effective dose required for antiviral activity against herpes simplex virus type-2; format: functional; details: read-out: ED50 (the source's name)

SMILES: Cc1cn([C@H]2S[C@@H](CO)[C@H](O)[C@H]2O)c(=O)[nH]c1=O
- Activity [1]: inactive
- Activity [2]: inactive
- Activity [3]: inactive

SMILES: Nc1ccn([C@H]2S[C@@H](CO)[C@H](O)[C@H]2O)c(=O)n1
- Activity [1]: inactive
- Activity [2]: inactive
- Activity [3]: inactive

- EC50 [4]: 10 µg/mL (≈ 38.6 µM)
- EC50 [5]: 10 µg/mL (≈ 38.6 µM)
SMILES: Nc1ccn([C@@H]2S[C@@H](CO)[C@H](O)[C@H]2O)c(=O)n1
- Activity [1]: inactive

SMILES: Cc1cn([C@@H]2S[C@@H](CO)[C@H](O)[C@H]2O)c(=O)[nH]c1=O
- Activity [1]: inactive
- Activity [2]: inactive
- Activity [3]: inactive
